The values that follow come from patent US20260234124A1, “Substituted Pyrazolyl-Pyridinyl Compounds as Ligand Directed Degraders of IRAK3” (Celgene Corporation, priority 2022, published 2026).

This experiment concerns the target T1, IRAK3-ePL (Homo sapiens, UniProt Q9Y616).
T1 construct: expressed in transfected cells; host or cells: 293T CRBN OE/GSPT1 G575N KI cells, lentiviral transduction, puromycin selection
Description: IRAK3-ePL overexpressing degradation assay. The class given is cell-based. As to conditions: IRAK3-ePL Lenti-X 293T CRBN/GSPT1 G575N cells, overnight incubation, top dose 10 μM; for Dmax: HEK-293T, maximum percentage loss of target protein; for DC50: read-out: IRAK3 ePL degradation EC50. As for the experimental part:
Example B1. IRAK3-ePL Overexpressing Degradation Assay
Stable cell lines were generated by the following protocol. 3×10^5 Lenti-X 293T cells (Clonetech) were plated in 0.8 mL of media in a 12-well plate and incubated overnight at 37° C./5% CO2. Packaging plasmid (0.4 μg, pMD), envelope plasmid (0.4 μg, pSP), and lentiviral transfer IRAK3-ePL plasmid (0.8 μg, IRAK3 sequence NM_007199.3) were mixed in 0.1 mL of Opti-MEM and incubated for 5 min. Simultaneously, 2.4 μL of Lipofectamine 2000 (Invitrogen) was added to 0.1 mL of Opti-MEM (Gibco) and incubated for 5 min. The plasmid DNA and lipofectamine were combined and the mixture was allowed to incubate for 20 min. DNA:Lipofectamine Opti-MEM mixtures were then added to previously plated cells dropwise and the cells were incubated for ~16 h at 37° C./5% CO2. Following incubation, the media was removed and 1.2 mL of fresh media was added per well. Lenti-X 293T cells were incubated for ~30 h at 37° C./5% CO2. […] Following incubation, media was removed from the Lenti-X 293T wells and passed through a […]. Part of the viral supernatant was used to transduce cells and the rest was stored at −80° C. Viruses were then added individually (0.5 mL virus) to each well of the 293T^CRBN OE/GSPT1 G575N KI cells, followed by addition of polybrene (10 mg/mL Millipore) to each well at a final concentration of 5.0 μg/mL. Cells were incubated for ~24 h at 37° C./5% CO2. After aspirating media off plates, cells were washed with DPBS, trypsinized and plated in a 10 cm dish in 15 mL of media and 1 μg/mL puromycin. Following incubation of cells for ~72 h at 37° C./5% CO2, media was aspirated off plates, and cells were washed with DPBS and trypsinized. The cells were plated in a 15 cm dish in 40 mL of media with 1.0 μg/mL Puromycin (Gibco) and incubated for ~72 h at 37° C./5% CO2. Following incubation, media was removed and cells were washed with DPBS and trypsinized. The majority of cells were resuspended in Invitrogen freezing media and stored away (~6-8×10^6 cells/vial).
IRAK3-ePL cellular dose response curve degradation assays were performed by the following protocol. Compounds to be tested were dispensed into a white 384-well tissue-culture treated plate using an acoustic liquid handler. Dilutions were prepared based on a 25 μL assay volume in duplicate 10 point 3-fold serial dilutions starting with a 10 μM dose. Negative control wells were included, which only contain 0.2% DMSO to calculate 100% signal. Positive control wells containing 30 μM Ataluren (luciferase inhibitor) were included to calculate the background signal level. All wells were backfilled to a final DMSO concentration of 0.2% to ensure DMSO uniformity across wells. IRAK3-ePL expressing cells (IRAK3-ePL Lenti-X 293T^CRBN/GSPT1 G575N) were washed, trypsinized, counted, and resuspended in fresh DMEM (Gibco) to give a cell concentration of 200,000 cells/mL. 25 μL of cells (5,000 cells/well) were dispensed into the wells of the 384-well plate prespotted with compounds in the previous step and incubated overnight at 37° C./5% CO2. Following incubation, the 384-well plate was taken out of the incubator and left at room temperature for 30 min. InCELL hunter reagent was prepared according to manufacturer's instructions (EA reagent, lysis buffer, and substrate reagent in a 1:1:4 ratio, Cat #96-0002, DiscoverX), which was added to the 384-well plate 25 μL per well. Following the incubation of the plate for 1 h at room temperature, the luminescence signal was read using a ViewLux plate reader. Data was processed and analyzed in ActivityBase software. In short, the average luminescence values of the positive control wells were subtracted from the rest of the wells for background correction, and all luminescence values were normalized to the DMSO control wells. The average value of the DMSO control wells was set to equal 100% of the relative IRAK3-ePL protein levels. […]

For `C[C@@H](Oc1cc(-c2cnn(C3CCN(CCOCCNC(=O)COc4ccc5c(c4)C(=O)N(C4CCC(=O)NC4=O)C5=O)CC3)c2)cnc1N)c1c(Cl)ccc(F)c1Cl` (stereo partly drawn) [Compound 14, N-(2-(2-(4-(4-(6-amino-5-((R)-1-(2,6-dichloro-3-fluorophenyl)ethoxy)pyridin-3-yl)-1H-pyrazol-1-yl)piperidin-1-yl)ethoxy)ethyl)-2-((2-(2,6-dioxopiperidin-3-yl)-1,3-dioxoisoindolin-5-yl)oxy)acetamide], the Dmax – broadly, the largest share of the target that was removed – came out at 12% and the DC50 was over 10 µM.
The matching figures for `C[C@@H](Oc1cc(-c2cnn(C3CCN(CCNC(=O)COc4cccc5c4C(=O)N(C4CCC(=O)NC4=O)C5=O)CC3)c2)cnc1N)c1c(Cl)ccc(F)c1Cl` (stereo partly drawn) [Compound 8, N-(2-(4-(4-(6-amino-5-((R)-1-(2,6-dichloro-3-fluorophenyl)ethoxy)pyridin-3-yl)-1H-pyrazol-1-yl)piperidin-1-yl)ethyl)-2-((2-(2,6-dioxopiperidin-3-yl)-1,3-dioxoisoindolin-4-yl)oxy)acetamide]: 12% and over 10 µM.
As to `C[C@@H](Oc1cc(-c2cnn(C3CCN(C4CCC5(CC4)CCN(C(=O)c4cccc(NC6CCC(=O)NC6=O)c4)CC5)CC3)c2)cnc1N)c1c(Cl)ccc(F)c1Cl` (stereo partly drawn) [Compound 22, 3-((3-(9-(4-(4-(6-Amino-5-((R)-1-(2,6-dichloro-3-fluorophenyl)ethoxy)pyridin-3-yl)-1H-pyrazol-1-yl)piperidin-1-yl)-3-azaspiro[5.5]undecane-3-carbonyl)phenyl)amino)piperidine-2,6-dione], the greatest degradation seen (Dmax) worked out at 78% and the DC50 was found to be 0.066 µM.
The matching figures for `Cc1ncsc1-c1ccc(CNC(=O)[C@@H]2C[C@@H](O)CN2C(=O)[C@@H](NC(=O)COCCOCCN2CCC(n3cc(-c4cnc(N)c(O[C@H](C)c5c(Cl)ccc(F)c5Cl)c4)cn3)CC2)C(C)(C)C)cc1` [Compound 2, (2S,4R)-1-((S)-2-(2-(2-(2-(4-(4-(6-amino-5-((R)-1-(2,6-dichloro-3-fluorophenyl)ethoxy)pyridin-3-yl)-1H-pyrazol-1-yl)piperidin-1-yl)ethoxy)ethoxy)acetamido)-3,3-dimethylbutanoyl)-4-hydroxy-N-(4-(4-methylthiazol-5-yl)benzyl)pyrrolidine-2-carboxamide]: 25% and over 10 µM.
For `C[C@@H](Oc1cc(-c2cnn(C3CCN(CCOCCOCCNC(=O)COc4ccc5c(c4)C(=O)N(C4CCC(=O)NC4=O)C5=O)CC3)c2)cnc1N)c1c(Cl)ccc(F)c1Cl` (stereo partly drawn) [Compound 15, N-(2-(2-(2-(4-(4-(6-amino-5-((R)-1-(2,6-dichloro-3-fluorophenyl)ethoxy)pyridin-3-yl)-1H-pyrazol-1-yl)piperidin-1-yl)ethoxy)ethoxy)ethyl)-2-((2-(2,6-dioxopiperidin-3-yl)-1,3-dioxoisoindolin-5-yl)oxy)acetamide], the Dmax was 27% and the DC50 was over 10 µM.
The matching figures for `C[C@@H](Oc1cc(-c2cnn(C3CCN(C4CCC5(CC4)CCN(C(=O)c4cccc6c4CN(C4CCC(=O)NC4=O)C6=O)CC5)CC3)c2)cnc1N)c1c(Cl)ccc(F)c1Cl` (stereo partly drawn) [Compound 21, 3-(4-(9-(4-(4-(6-amino-5-((R)-1-(2,6-dichloro-3-fluorophenyl)ethoxy)pyridin-3-yl)-1H-pyrazol-1-yl)piperidin-1-yl)-3-azaspiro[5.5]undecane-3-carbonyl)-1-oxoisoindolin-2-yl)piperidine-2,6-dione]: 59% and 0.105 µM.
The corresponding values for `Cc1ncsc1-c1ccc(CNC(=O)[C@@H]2C[C@@H](O)CN2C(=O)[C@@H](NC(=O)COCCOCCOCCOCCN2CCC(n3cc(-c4cnc(N)c(O[C@H](C)c5c(Cl)ccc(F)c5Cl)c4)cn3)CC2)C(C)(C)C)cc1` [Compound 4, (2S,4R)-1-((S)-17-(4-(4-(6-amino-5-((R)-1-(2,6-dichloro-3-fluorophenyl)ethoxy)pyridin-3-yl)-1H-pyrazol-1-yl)piperidin-1-yl)-2-(tert-butyl)-4-oxo-6,9,12,15-tetraoxa-3-azaheptadecanoyl)-4-hydroxy-N-(4-(4-methylthiazol-5-yl)benzyl)pyrrolidine-2-carboxamide] are 26% and over 10 µM.
The corresponding values for `C[C@@H](Oc1cc(-c2cnn(C3CCN(CCOCCOCCOCCOCCNC(=O)COc4ccc5c(c4)C(=O)N(C4CCC(=O)NC4=O)C5=O)CC3)c2)cnc1N)c1c(Cl)ccc(F)c1Cl` (stereo partly drawn) [Compound 17, N-(14-(4-(4-(6-amino-5-((R)-1-(2,6-dichloro-3-fluorophenyl)ethoxy)pyridin-3-yl)-1H-pyrazol-1-yl)piperidin-1-yl)-3,6,9,12-tetraoxatetradecyl)-2-((2-(2,6-dioxopiperidin-3-yl)-1,3-dioxoisoindolin-5-yl)oxy)acetamide] are 18% and over 10 µM.
With `C[C@@H](Oc1cc(-c2cnn(C3CCN(C4CCC5(CC4)CCN(C(=O)c4ccc6c(c4)C(=O)N(C4CCC(=O)NC4=O)C6=O)CC5)CC3)c2)cnc1N)c1c(Cl)ccc(F)c1Cl` (stereo partly drawn) [Compound 18, 5-(9-(4-(4-(6-amino-5-((R)-1-(2,6-dichloro-3-fluorophenyl)ethoxy)pyridin-3-yl)-1H-pyrazol-1-yl)piperidin-1-yl)-3-azaspiro[5.5]undecane-3-carbonyl)-2-(2,6-dioxopiperidin-3-yl)isoindoline-1,3-dione], the Dmax is 80% and the DC50 came to 0.066 µM.
The matching figures for `C[C@@H](Oc1cc(-c2cnn(C3CCN(CCOCCOCCNC(=O)COc4cccc5c4C(=O)N(C4CCC(=O)NC4=O)C5=O)CC3)c2)cnc1N)c1c(Cl)ccc(F)c1Cl` (stereo partly drawn) [Compound 10, N-(2-(2-(2-(4-(4-(6-amino-5-((R)-1-(2,6-dichloro-3-fluorophenyl)ethoxy)pyridin-3-yl)-1H-pyrazol-1-yl)piperidin-1-yl)ethoxy)ethoxy)ethyl)-2-((2-(2,6-dioxopiperidin-3-yl)-1,3-dioxoisoindolin-4-yl)oxy)acetamide]: 22% and over 10 µM.
